In brackets after ≈: the same amount, converted by molar mass. Numbered stars: 1 amine (or outer) side, 2 acyl side, 3 side chain; on linkers, the order of the positions; unused ones are H or OH. Bridge positions count the residues as written; N and C are the ends. Square brackets hold non-standard residues; d marks the D form. Peptide text beside a SMILES is read from it. * marks the point of attachment. X4 = CCCCCCCCN([C@H](C)C(=O)[*:2])[*:1]; X2 = CCCCC[C@@H](C)N(CC(=O)[*:2])[*:1]; X6 = CCCCC[C@H](C)N(CC(=O)[*:2])[*:1]; X7 = CCOCCOCCOCCN(CC(=O)[*:2])[*:1]; aIle = CC[C@@H](C)[C@H](N)C(=O)O; N(octyl)Gly = CCCCCCCCNCC(=O)O; aThr = C[C@H](O)[C@H](N)C(=O)O; NMeL = CN[C@@H](CC(C)C)C(=O)O; dOrn = NCCC[C@@H](N)C(=O)O; dDab = NCC[C@@H](N)C(=O)O; Heptanoyl = CCCCCCC(=O)*; Octanoyl = CCCCCCCC(=O)*; Orn = NCCC[C@H](N)C(=O)O; Dab = NCC[C@H](N)C(=O)O; Hexanoyl = CCCCCC(=O)*; Pentanoyl = CCCCC(=O)*; Propionyl = CCC(=O)*; Butyryl = CCCC(=O)*; βAla = NCCC(=O)O
How the values were obtained:
[1] = tested on: E. coli; format: cell-based
Text: Initially, a library of six lipid amide analogues was synthesized via cyclization between the side-chain epsilon -NH2 of an N-terminal L-lysine residue and the C-terminus of an L-serine residue.
Each analogue was acylated with a simple linear lipid, ranging from C3 to C8 in length (Figure S1). To further probe the potential of the amide isostere, five additional analogues were synthesized in which the D- or L-stereoisomer of cationic amino acids diaminobutyric acid (Dab), ornithine (Orn), or Lys were used as the N-terminal cyclization partner. Each analogue was acylated with an octanoyl tail and the subsequent effects of ring size and/or stereochemistry, as well as lipid length, determined by assessing antimicrobial activity against E. coli. Peptides were also screened against S. aureus.
Unfortunately, each analogue was unable to […]

[2] = target: T1, PaLspA (Pseudomonas aeruginosa, UniProt Q9HVM5); experiment: biochemical
T1 construct: made in house
T1 sequence (Q9HVM5 1-169): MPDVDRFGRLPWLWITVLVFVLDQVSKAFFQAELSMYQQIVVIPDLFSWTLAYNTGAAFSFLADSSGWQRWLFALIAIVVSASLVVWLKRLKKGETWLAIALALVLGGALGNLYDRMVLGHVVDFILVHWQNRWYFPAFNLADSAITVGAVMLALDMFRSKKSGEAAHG
Protocol: These analogues were tested for activity against PaLspA using an in vitro fluorescence resonance energy transfer (FRET) activity assay.[21] LspA inhibition was detected by a change in fluorescence upon cleavage of a FRET peptide substrate containing an N-terminal quencher moiety and a C-terminal fluorophore.
(A) Structures of G2a and G2d. (B) Results of the FRET dose–response assays. PaLspA concentration was 40 nM, FRET substrate concentration was 50 μM, and the concentration of inhibitors globomycin, G2a, and G2d ranged from 0–3,000 nM. (C) SDS-PAGE gels and quantitation of the PaLspA gel-shift dose–response assays. ppICP concentration was 12 μM, DOPG concentration was 600 μM, and Lgt concentration was 1.2 μM. The Lgt-catalyzed reaction was allowed to proceed for 60 min at 37 °C, after which inhibitors (0–1000 nM) were added. The PaLspA reaction was initiated by the addition of 100 nM enzyme. The LspA reaction was allowed to proceed for 30 min at 37 °C before being quenched with SDS-PAGE loading buffer (62.5 mM Tris/HCl pH 6.8, 2.5% (w/v) SDS, 0.002% (w/v) bromophenol blue, 0.5 M β-mercaptoethanol, 10% (v/v) glycerol). Quantitation of the gel-shift assays was performed using Image Lab, and data were plotted using GraphPad Prism.
Materials: All reagents were obtained from commercial sources and used without additional purification. All aqueous solutions were prepared using ultrapure laboratory grade water (deionized, filtered, and sterilized) obtained from an in-house ELGA water purification system. […]
Expression and purification of PaLspA, Lgt, EcLspA and ppICP: PaLspA, Lgt and pre-proICP (ppICP) were expressed and purified using previously published protocols (Vogely et al, 2016).[1] EcLspA was expressed and purified as described for PaLspA, with the following modification. The lysis buffer was 50 mM Hepes pH 7.5, 150 mM NaCl, 1 mM TCEP, 10 %(v/v) glycerol. Isolated membranes, containing EcLspA, were solubilized with 1 %(v/v) FC12 for 2 h at […]

[3] = target: T1, PaLspA; experiment: Enzyme inhibition assay of rationally designed analogues with PaLspA; format: biochemical; conditions: peptide incubated with PaLspA
Protocol: Additionally, C3 – C5 (peptides S5 – S7) and C7-Gbm(NLys) (peptide S9) amide analogues were submitted for enzyme inhibition assays to determine if these cyclic amide isosteres could still inhibit the target enzyme, LspA. Each peptide was incubated with PaLspA and the observed reduction in enzyme activity reported. […]
found for peptides S5 and S9 (C3 and C7-Gbm(NLys). […]
Four linear globomycin analogues were synthesized to determine the necessity of the cyclic core.
The pentapeptide core of NMeLeu-Ile-Ser-Thr-Gly-OH was synthesized as both the natural allo-version and the cheaper non-allo version in which native residues allo-L-isoleucine and allo-L-threonine were replaced by their cheaper non-allo derivatives. Each linear pentapeptide was synthesized in both its acylated, octyl-derivative and non-acylated form and submitted for analysis of its PaLspA inhibitory activity. No PaLspA inhibition was observed, confirming the importance of globomycin’s cyclic core for antimicrobial activity.

[4] = tested on: P. aeruginosa 950; experiment: microbe, parasite or virus in culture; format: cell-based, Pseudomonas aeruginosa; conditions: 950
Protocol: (§1) MIC values were determined in cation-adjusted Mueller-Hinton broth using the broth microdilution method according to CLSI guidelines. Plates were incubated for 16 to 24 h at 37 °C.
(§2) Six biological replicates were performed across three different 2-fold dilution series, starting at concentration of 100 µg/ml, 80 µg/ml or 64 µg/ml. The lowest concentration of antimicrobial inhibiting growth was taken as the MIC. This was established by visual inspection of the medium after the incubation period with a lack of turbidity of the growth medium indicating no growth.[3] […]

[5] = tested on: A. baumannii AB5075; experiment: microbe, parasite or virus in culture; format: cell-based, Acinetobacter baumannii; conditions: AB5075
Protocol: as §1, §2

[6] = tested on: A. baumannii AB17978; experiment: microbe, parasite or virus in culture; format: cell-based, Acinetobacter baumannii; conditions: AB17978
Protocol: as §1, §2

[7] = tested on: E. coli ATCC25922; experiment: microbe, parasite or virus in culture; format: cell-based, Escherichia coli; conditions: ATCC25922
Protocol: as §1, §2

Compound | MIC [1] [mg/L] | other results
CCCCCCCCN1CC(=O)N(C)[C@@H](CC(C)C)C(=O)N[C@@H]([C@H](C)CC)C(=O)N[C@@H](CO)C(=O)N[C@@H]([C@H](C)O)C(=O)NCCC1=O [G2c] (cyclo([NMeL][aIle]S[aThr][βAla][N(octyl)Gly])) |  | IC50 [2]: 0.92 ± 0.07 µM
CCCC(=O)N[C@H]1CCCCNC(=O)[C@H](CO)NC(=O)[C@H](CO)NC(=O)[C@H]([C@H](C)CC)NC(=O)[C@H](CC(C)C)N(C)C1=O [S6, C4-Globomycin(N-Lys)] (Butyryl-K[NMeL][aIle]SS; lactam 1-C) | > 200 | reduction in PaLspA enzyme activity (in words) [3]: no reduction in activity
CCCCC[C@@H](C)N1CC(=O)N(C)[C@@H](CC(C)C)C(=O)N[C@@H]([C@H](C)CC)C(=O)N[C@@H](CO)C(=O)N[C@@H]([C@H](C)O)C(=O)NCCC1=O [G1b] (cyclo([NMeL][aIle]S[aThr][βAla][X2])) |  | IC50 [2]: 3.68 ± 0.42 µM; MIC [4]: 32 mg/L (≈ 48.9 µM); MIC [5]: 25 mg/L (≈ 38.2 µM); MIC [6]: 16 mg/L (≈ 24.4 µM); MIC [7]: 32 mg/L (≈ 48.9 µM)
CCC(=O)N[C@H]1CCCCNC(=O)[C@H](CO)NC(=O)[C@H](CO)NC(=O)[C@H]([C@H](C)CC)NC(=O)[C@H](CC(C)C)N(C)C1=O [S5, C3-Globomycin(N-Lys)] (Propionyl-K[NMeL][aIle]SS; lactam 1-C) | > 200 | reduction in PaLspA enzyme activity (in words) [3]: moderate decrease in enzyme activity
CCCCCCCCN1C(=O)CCNC(=O)[C@H]([C@H](C)O)NC(=O)[C@H](CO)NC(=O)[C@H]([C@H](C)CC)NC(=O)[C@H](CC(C)C)N(C)C(=O)[C@H]1C [G2b] (cyclo([NMeL][aIle]S[aThr][βAla][X4])) |  | IC50 [2]: 0.43 ± 0.05 µM
CCCCCCCC(=O)N[C@H]1CC=CCNC(=O)[C@H](CO)NC(=O)[C@H](CO)NC(=O)[C@H]([C@H](C)CC)NC(=O)[C@H](CC(C)C)N(C)C1=O [S13, C8-Globomycin(RCM)] | > 200 | antimicrobial activity (in words) ([1]; against Gram-negative bacteria): void of antimicrobial activity
CCCCC[C@H](C)N1CC(=O)N(C)[C@@H](CC(C)C)C(=O)N[C@@H]([C@H](C)CC)C(=O)N[C@@H](CO)C(=O)N[C@@H]([C@H](C)O)C(=O)NCCC1=O [G1a] (cyclo([NMeL][aIle]S[aThr][βAla][X6])) |  | IC50 [2]: 2.94 ± 0.85 µM
CCCCC(=O)N[C@H]1CCCCNC(=O)[C@H](CO)NC(=O)[C@H](CO)NC(=O)[C@H]([C@H](C)CC)NC(=O)[C@H](CC(C)C)N(C)C1=O [S7, C5-Globomycin(N-Lys)] (Pentanoyl-K[NMeL][aIle]SS; lactam 1-C) | > 200 | reduction in PaLspA enzyme activity (in words) [3]: no reduction in activity
CCCCCCC(=O)N[C@H]1CCCCNC(=O)[C@H](CO)NC(=O)[C@H](CO)NC(=O)[C@H]([C@H](C)CC)NC(=O)[C@H](CC(C)C)N(C)C1=O [S9, C7-Globomycin(N-Lys)] (Heptanoyl-K[NMeL][aIle]SS; lactam 1-C) | 100 (≈ 153 µM) | reduction in PaLspA enzyme activity (in words) [3]: moderate decrease in enzyme activity
CCOCCOCCOCCN1CC(=O)N(C)[C@@H](CC(C)C)C(=O)N[C@@H]([C@H](C)CC)C(=O)N[C@@H](CO)C(=O)N[C@@H]([C@H](C)O)C(=O)NCCC1=O [G2e] (cyclo([NMeL][aIle]S[aThr][βAla][X7])) |  | IC50 [2]: 6.16 ± 0.84 µM

Continued, in another order:

MIC [1] [mg/L] | Compound | other results
> 200 | CC[C@H](C)[C@H](NC(=O)[C@H](CC(C)C)NC)C(=O)N[C@@H](CO)C(=O)N[C@H](C(=O)NCC(=O)O)[C@@H](C)O [S2, Non-alloHN-Globomycin] (H-[NMeL]ISTG-OH) | 
> 200 | CCCCCC(=O)N[C@H]1CCCCNC(=O)[C@H](CO)NC(=O)[C@H](CO)NC(=O)[C@H]([C@H](C)CC)NC(=O)[C@H](CC(C)C)N(C)C1=O [S8, C6-Globomycin(N-Lys)] (Hexanoyl-K[NMeL][aIle]SS; lactam 1-C) | 
> 200 | CCCCCCCC(=O)N(C)[C@@H](CC(C)C)C(=O)N[C@H](C(=O)N[C@@H](CO)C(=O)N[C@H](C(=O)NCC(=O)O)[C@@H](C)O)[C@@H](C)CC [S4, Non-alloOctanoyl-Globomycin] (Octanoyl-[NMeL]ISTG-OH) | 
> 200 | CCCCCCCC(=O)N[C@@H]1CCNC(=O)[C@H](CO)NC(=O)[C@H](CO)NC(=O)[C@H]([C@H](C)CC)NC(=O)[C@H](CC(C)C)N(C)C1=O [S16, C8-Globomycin(N-D-Dab)] (Octanoyl-[dDab][NMeL][aIle]SS; lactam 1-C) | 
> 200 | CCCCCCCC(=O)N[C@H]1CCNC(=O)[C@H](CO)NC(=O)[C@H](CO)NC(=O)[C@H]([C@H](C)CC)NC(=O)[C@H](CC(C)C)N(C)C1=O [S12, C8-Globomycin(N-Dab)] (Octanoyl-[Dab][NMeL][aIle]SS; lactam 1-C) | 
> 200 | CCCCCCCC(=O)N[C@H]1CCCNC(=O)[C@H](CO)NC(=O)[C@H](CO)NC(=O)[C@H]([C@H](C)CC)NC(=O)[C@H](CC(C)C)N(C)C1=O [S11, C8-Globomycin(N-Orn)] (Octanoyl-[Orn][NMeL][aIle]SS; lactam 1-C) | 
> 200 | CCCCCCCC(=O)N(C)[C@@H](CC(C)C)C(=O)N[C@H](C(=O)N[C@@H](CO)C(=O)N[C@H](C(=O)NCC(=O)O)[C@H](C)O)[C@H](C)CC [S3, Octanoyl-Globomycin] (Octanoyl-[NMeL][aIle]S[aThr]G-OH) | 
> 200 | CCCCCCCC(=O)N[C@H]1CCCCNC(=O)[C@H](CO)NC(=O)[C@H](CO)NC(=O)[C@H]([C@H](C)CC)NC(=O)[C@H](CC(C)C)N(C)C1=O [S10, C8-Globomycin(N-Lys)] (Octanoyl-K[NMeL][aIle]SS; lactam 1-C) | 
> 200 | CCCCCCCC(=O)N[C@@H]1CCCCNC(=O)[C@H](CO)NC(=O)[C@H](CO)NC(=O)[C@H]([C@H](C)CC)NC(=O)[C@H](CC(C)C)N(C)C1=O [S14, C8-Globomycin(N-D-Lys)] (Octanoyl-[dK][NMeL][aIle]SS; lactam 1-C) | 
> 200 | CC[C@@H](C)[C@H](NC(=O)[C@H](CC(C)C)NC)C(=O)N[C@@H](CO)C(=O)N[C@H](C(=O)NCC(=O)O)[C@H](C)O [S1, HN-Globomycin] (H-[NMeL][aIle]S[aThr]G-OH) | 
> 200 | CCCCCCCC(=O)N[C@@H]1CCCNC(=O)[C@H](CO)NC(=O)[C@H](CO)NC(=O)[C@H]([C@H](C)CC)NC(=O)[C@H](CC(C)C)N(C)C1=O [S15, C8-Globomycin(N-D-Orn)] (Octanoyl-[dOrn][NMeL][aIle]SS; lactam 1-C) | 
